Experimental data from patent US6461664B1, “Chelated feed additive and method of preparation” (Agristudio S. r. L., priority 1999, dated 2002).

Experiment: solubility in water of the dried chelate
Type: physicochemical
Details: ambient temperature, white powder
Experimental: In the case described, the dried chelate is in the form of a white powder, with a melting point of about 248° C. and a solubility in water of about 20 g/l at ambient temperature.

Question: With (CH3SCH2CH2CHOHCO)2Zn [Example 1] as the substance, how does the solubility in water read?
Answer: The solubility in water was “about 20 g/l”.
